Values quoted from earlier work as cited in article PMC10465233, “Lys-urea-Aad, Lys-urea-Cmc and Lys-urea-Cms as potential pharmacophores for the design of PSMA-targeted radioligands to reduce off-target uptake in kidneys and salivary glands” (Theranostics, 2023).

Tested on: LNCaP tumor-bearing mice
Conditions: cited from earlier work

O=C([O-])CN1CCN(CC(=O)[O-])CCN(CC(=O)NCC2CCC(C(=O)NC(Cc3c4ccccc4cc4ccccc34)C(=O)NCCCCC(NC(=O)NC(CCC(=O)O)C(=O)O)C(=O)O)CC2)CCN(CC(=O)[O-])CC1.[68Ga+3] (stereo not shown) [[^68Ga]Ga-HTK03141]
Kidney uptake (1 h post-injection): 170±26.4 %ID/g
Tumor uptake (1 h post-injection): 23.1±6.11 %ID/g
Salivary gland uptake (1 h post-injection, unreported data in b5): 4.99±0.88 %ID/g
Peaked tumor uptake: 23.1 %ID/g
